For six molecules, viability, inhibition and Activity results are on record in ChEMBL document CHEMBL6153019, “A series of indole-derived γ-hydroxy propiolate esters as potent anti-inflammatory agents: Design, synthesis, in-vitro and in-vivo biological studies” (Eur J Med Chem, 2024).

Series [1] can be described thus: Cytotoxicity against mouse RAW264.7 cells assessed as cell survival at 10 uM preincubated for 4 hrs followed by compound addition and measured after 20 hrs by MTT assay relative to control. It is filed as toxicity, cell-based. As to conditions: read-out: Survival. (In general: Tetrazolium assays rely on reduction of a dye to a coloured formazan, in cell work by metabolically active cells.)

Series [2] relates to RAW264.7. Briefly: Anti-inflammatory activity against LPS-induced mouse RAW264.7 cells assessed as inhibition of COX-1 expression at 5 uM incubated for 24 hrs by ELISA method relative to control. It is filed as functional. Background: In an ELISA, binding on a coated surface is turned into a signal by an enzyme label.
Series [3] concerns RAW264.7. Briefly: Anti-inflammatory activity against LPS-induced mouse RAW264.7 cells assessed as downregulation of COX-1 protein expression level incubated for 24 hrs by ELISA method. In kind it is functional, cell-based.
The subject of series [4] is RAW264.7. The series is described as follows: Anti-inflammatory activity against LPS-Induced mouse RAW264.7 cells assessed as inhibition of Nitric oxide release at 10 uM measured after 18 hrs by Griess reagent assay relative to control. It is filed as functional. Set-up: Activity: scale not given: the % may be the effect or the level left. As to conditions: for inhibition at 10 µM: Mus musculus, RAW264.7. For orientation: The Griess reaction detects nitrite, a stable product of nitric oxide.

For series [5], the system named is RAW264.7. Briefly: Anti-inflammatory activity against LPS-Induced mouse RAW264.7 cells assessed as inhibition of COX-2 expression level at 5 uM incubated for 24 hrs by ELISA method relative to control. It is filed as functional.
Series [6] relates to RAW264.7. Briefly: Anti-inflammatory activity against LPS-induced mouse RAW264.7 cells assessed as inhibition of 5-LOX protein expression at 5 uM incubated for 24 hrs by ELISA method relative to control. It is filed as functional.
The test system of series [7] is RAW264.7. The series is described as follows: Anti-inflammatory activity against LPS-Induced mouse RAW264.7 cells assessed as inhibition of COX-1 expression level at 5 uM incubated for 24 hrs by ELISA method relative to control. It is filed as functional.
The test system of series [8] is RAW264.7. The series is described as follows: Anti-inflammatory activity against LPS-Induced mouse RAW264.7 cells assessed as inhibition of COX-2 at 5 uM incubated for 24 hrs by ELISA method relative to control. In kind it is functional.
Series [9] deals with Mus musculus. The series is described as follows: Anti-inflammatory activity against female Kunming mouse model xylene-induced auricle edema assessed as inhibition rate of ear swelling measured after 1 hr. In kind it is functional, organism-based.
Series [10] relates to RAW264.7. Briefly: Anti-inflammatory activity against LPS-Induced mouse RAW264.7 cells assessed as inhibition of PGE2 production at 10 uM measured after 24 hrs by ELISA method. It is filed as functional.
Series [11] relates to Mus musculus. Briefly: Anti-inflammatory activity against female Kunming mouse model xylene-induced auricle edema assessed as inhibition of ear swelling at 100 mg/kg, IP measured after 1 hr relative to control. It is filed as functional. Details: scale not given: the % may be the effect or the level left.
The test system of series [12] is RAW264.7. The series is described as follows: Anti-inflammatory activity against LPS-Induced mouse RAW264.7 cells assessed as inhibition of PGF1 production at 5 uM incubated for 24 hrs by ELISA method relative to control. In kind it is functional.
Series [13] deals with RAW264.7. The series is described as follows: Anti-inflammatory activity against LPS-Induced mouse RAW264.7 cells assessed as inhibition of PGE2 production at 1uM measured after 24 hrs by ELISA method. It is filed as functional.
In series [14] the test system is RAW264.7. The series is described as follows: Anti-inflammatory activity against LPS-Induced mouse RAW264.7 cells assessed as inhibition of TXB-2 release at 5 uM incubated for 24 hrs by LT determination assay relative to control. In kind it is functional. Set-up: scale not given: the % may be the effect or the level left.
The subject of series [15] is RAW264.7. The series is described as follows: Anti-inflammatory activity against LPS-Induced mouse RAW264.7 cells assessed as inhibition in COX-2 expression at 1uM incubated for 24 hrs by ELISA method. In kind it is functional, cell-based.
Series [16] has as its system RAW264.7. The series is described as follows: Anti-inflammatory activity against LPS-Induced mouse RAW264.7 cells assessed as inhibition of LT release at 1 uM incubated for 24 hrs by LT determination assay relative to control. It is filed as functional.
The test system of series [17] is RAW264.7. Briefly: Anti-inflammatory activity against LPS-Induced mouse RAW264.7 cells assessed as inhibition of Nitric oxide release at 1 uM measured after 18 hrs by Griess reagent assay. In kind it is functional, cell-based.
Series [18] deals with RAW264.7. The series is described as follows: Antiproliferative activity against mouse RAW264.7 cells assessed as tumor growth inhibition at 10 uM preincubated for 4 hrs followed by compound addition and measured after 20 hrs by MTT assay. In kind it is functional, cell-based.
For series [19], the system named is RAW264.7. The series is described as follows: Anti-inflammatory activity against LPS-Induced mouse RAW264.7 cells assessed as increase inhibition of PGE2 production measured after 24 hrs by ELISA method. In kind it is functional, cell-based.
Series [20] relates to RAW264.7. Briefly: Anti-inflammatory activity against LPS-Induced mouse RAW264.7 cells assessed as inhibition of LT release at 5 uM incubated for 24 hrs by LT determination assay relative to control. In kind it is functional.
The subject of series [21] is RAW264.7. The series is described as follows: Anti-inflammatory activity against LPS-Induced mouse RAW264.7 cells assessed as inhibition of PGE2 production at 5 uM measured after 24 hrs by ELISA method. It is filed as functional, cell-based.
Series [22] is described as follows: Cytotoxicity against mouse RAW264.7 cells assessed as cell survival at 5 uM preincubated for 4 hrs followed by compound addition and measured after 20 hrs by MTT assay relative to control. It is filed as toxicity, cell-based. The conditions noted are these: read-out: Survival.
Series [23] deals with RAW264.7. Briefly: Anti-inflammatory activity against LPS-Induced mouse RAW264.7 cells assessed as inhibition of Nitric oxide release at 1 uM measured after 18 hrs by Griess reagent assay relative to control. It is filed as functional.
Series [24] has as its system Mus musculus. The series is described as follows: Anti-inflammatory activity against female Kunming mouse model xylene-induced auricle edema assessed as inhibition of ear swelling at 50 mg/kg, ip measured after 1 hr relative to control. It is filed as functional. Set-up: scale not given: the % may be the effect or the level left.
Series [25] has as its system RAW264.7. Briefly: Anti-inflammatory activity against LPS-Induced mouse RAW264.7 cells assessed as inhibition of TXB-2 release at 1 uM incubated for 24 hrs by LT determination assay relative to control. In kind it is functional.
The test system of series [26] is RAW264.7. The series is described as follows: Anti-inflammatory activity against LPS-Induced mouse RAW264.7 cells assessed as inhibition of PGF1 production at 1 uM incubated for 24 hrs by ELISA method relative to control. It is filed as functional.

Calls of active or inactive are those of the source. The calls are words filed in the database; no cut-off is given here.

On to `COC(=O)C#CC1(O)C(=O)N(Cc2cccc3ccccc23)c2ccc(Cl)cc21` (configuration not stated), for which the viability at 20 h, 10 µM in [1] was 99.9%.
Turning to `COC(=O)C#CC1(O)C(=O)N(Cc2cccc3ccccc23)c2cc(Cl)ccc21` (configuration not stated), the inhibition at 5 µM was found to be 35.3% in series [2]; 42.6% in series [5]; 71.2% in series [6]; 35.3% in series [7]; 42.6% in [8]. In [3], the inhibition entry is “Active”. Also, the inhibition at 10 µM in series [4] turned out to be 102%.
On to `COC(=O)C#CC1(O)C(=O)Nc2ccc(C)cc21` (configuration not stated), for which the Activity in series [4] is given as 81.68%.
With `COC(=O)C#CC1(O)C(=O)N(Cc2ccccc2)c2cc(Cl)ccc21` (configuration not stated), the Activity entry in series [9] is “Dose-dependent-effect”; in [11] it was 85.43%; in series [14], 21.14%; in series [24], 78.14%. Moreover, the inhibition at 10 µM in series [10] came to 94.5%; in series [4], 101%. Moreover, the inhibition at 5 µM came out at 16.6% in series [12], 38.8% in [5], 11% in series [20] and 38.8% in series [8]. Further, the inhibition at 1 µM in [13] is 58%; in series [16], 25.9%; in series [23], 50%; in series [25], 25.4%; in [26] it was 16%. For the same molecule, the inhibition result in [15], in [17] and in [21] was “Active” each time. Also, the outcome in series [18] was Active. Besides, the inhibition result in [19] is “Dose-dependent-effect”. Besides, the viability at 20 h, 5 µM in series [22] was 57.9%.
Consider `COC(=O)C#CC1(O)C(=O)N(C)c2cccc(Cl)c21` (configuration not stated), for which the viability at 20 h, 10 µM in [1] turned out to be 86.7%.
Take `Cc1ccc(-c2cc(C(F)(F)F)nn2-c2ccc(S(N)(=O)=O)cc2)cc1` [CELECOXIB]: the Activity in series [11] was 93.23%.

One may read the inhibition as the relative decrease from the control value, in per cent.
